Data published in US8492344B2, “PDK inhibitor compounds and methods of use thereof” (University of Florida Research Foundation, priority 2008, dated 2013).

System: PDH activity
Experiment: PDH activity in human fibroblast cultures (14CO2 from [1-14C]-pyruvate)
Assay type: cell-based
Details: dose-response 0.01 to 5 mM, lowest concentration printed as 0.01 μM
Method: PDH complex activity was measured by the rate of ^14C formation from [1-^14C]-labeled pyruvate, as described in Mitochondrion 6:126-135 (2006) or Mitochondrion. 7: 253-259 (2007). Fibroblasts harvested by trypsinization from a confluent T-75 flask were washed in phosphate-buffered saline (PBS) and resuspended in PBS containing the serine protease inhibitors leupeptin and phenylmethylsulfonyl fluoride (PMSF). Cells were incubated for 15 min at 37° C. with DCA. Reactions were halted by addition of a stop solution (25 mM NaF, 25 mM EDTA, 4 mM dithiothreitol, 40% ethanol), and cells were lysed by repeated freezing and thawing. Sixteen aliquots of each fibroblast sample were assayed in test tubes for enzyme activity. Four samples that contained only lysate and water and four samples that also contained thiamine pyrophosphate and coenzyme A were assayed at reaction times of 5 and 10 min. A ^14C-labeled pyruvate aliquot of known specific activity was added to the cell lysates and the test tubes were immediately closed with a rubber stopper. The stopper was outfitted with a center well (Kimble-Kontes, Vineland, N.J.) that contained 1 cm^2 chromatography paper soaked with 100 μl hyamine hydroxide. Reactions were halted by adding stopping buffer. The ^14CO2 evolved due to PDH-mediated catalysis and trapped in the paper was determined by liquid scintillation. PDH specific activity was expressed as nmol ^14CO2 produced/min/mg protein. Excess cell lysate was used to determine total protein.
The compounds (predicted to interact with PDK2) were tested in human fibroblast cultures from three healthy subjects for their effect on PDH activity. DCA and dimethyl sulfoxide (DMSO) were used as positive and vehicle controls, respectively. Drugs were dissolved in DMSO and were used at maximum feasible dose in initial studies (0.25 to 2 mM). For dose-response experiments, concentrations used were: 0.01, 0.05, 0.1, 0.5, 1, and 5 mM. DCA was used as positive control. Cells were exposed to media with DCA, NCI compounds or DMSO vehicle for the final 24 h of culture.
Primary cultures of fibroblasts were grown at 37° C. in a humidified 5% CO2/95% air atmosphere in DMEM supplemented with 20% (v/v) FBS, 100 U/mL penicillin, 100 μg/mL streptomycin, and 6 mM L-glutamine.
Cell lysates treated with DCA or NCI compounds were incubated in a reaction buffer that contained [1-^14C]-pyruvate. PDH activity was measured by quantitation of liberated ^14CO2. (Han et al., 2007. Down-regulation of rat pyruvate dehydrogensae E1a gene by self-complementary adeno-associated virus-mediated small interfering RNA delivery. Mitochondrion. 7: 253-259). Each sample was run in triplicate, with appropriate blanks.

**Q.** With `CC(=CC(=O)O)C(=O)O` [Compound 10, 2-methylbut-2-enedioic acid] as the compound, how does the “Potency relative to DCA in improving PDH activity at the lowest concentration tested” value read?
**A.** may be more potent than DCA

**Q.** Which “Potency relative to DCA in improving PDH activity at the lowest concentration tested” value does the source give for `O=C(O)Cc1cnc[nH]1` [Compound 14, 2-(3H-imidazol-4-yl)acetic acid] here?
**A.** may be more potent than DCA

Same assay, conditions: dose-response, 0.01 mM

**Q.** With `CC(=CC(=O)O)C(=O)O` [Compound 10, 2-methylbut-2-enedioic acid] as the compound, how does the “Potency relative to DCA in increasing PDH activity” value read?
**A.** more potent than DCA

**Q.** With `O=C(O)Cc1cnc[nH]1` [Compound 14, 2-(3H-imidazol-4-yl)acetic acid] as the compound, how does the “Potency relative to DCA in increasing PDH activity” value read?
**A.** more potent than DCA

Same assay, conditions: dose-response, 5mM

**Q.** With `CC(=CC(=O)O)C(=O)O` [Compound 10, 2-methylbut-2-enedioic acid] as the compound, how does the “Change of PDH activity at 5 mM” value read?
**A.** significant decrease in PDH activity

**Q.** Which “Change of PDH activity at 5 mM” value does the source give for `O=C(O)Cc1cnc[nH]1` [Compound 14, 2-(3H-imidazol-4-yl)acetic acid] here?
**A.** increased PDH activity

**Q.** For `C/C(Cl)=C\C(=O)O` [Compound 18, (E)-3-chlorobut-2-enoic acid], which “Change of PDH activity at 5 mM” value is on record?
**A.** significant decrease in PDH activity

Same assay, conditions: initial studies, maximum feasible dose (0.25 to 2 mM), 24 h, 3 cell lines, p≦0.05

**Q.** Which “PDH activity vs DMSO control (result in words)” value (“PDH activity vs DMSO control” below) does the source give for `CC(=CC(=O)O)C(=O)O` [Compound 10, 2-methylbut-2-enedioic acid] here?
**A.** significantly increased PDH activity

**Q.** For `CC(O)C(O)C(=O)O` (stereo not shown) [Compound 12, 2,3-dihydroxybutanoic acid], which “PDH activity vs DMSO control” value is on record?
**A.** significantly increased PDH activity

**Q.** With `O=C(O)Cc1cnc[nH]1` [Compound 14, 2-(3H-imidazol-4-yl)acetic acid] as the compound, how does the “PDH activity vs DMSO control” value read?
**A.** significantly increased PDH activity

**Q.** For `C/C(Cl)=C\C(=O)O` [Compound 18, (E)-3-chlorobut-2-enoic acid], which “PDH activity vs DMSO control” value is on record?
**A.** significantly increased PDH activity

**Q.** With `C/C=C\C(=O)O` [Compound 24, (Z)-but-2-enoic acid] as the compound, how does the “PDH activity vs DMSO control” value read?
**A.** significantly increased PDH activity

**Q.** Which “PDH activity vs DMSO control” value does the source give for `O=CNCC(=O)O` [Compound 25, 2-formamidoacetic acid] here?
**A.** significantly increased PDH activity

Same assay, conditions: tested at 0.25 mM, data not shown

**Q.** With `O=C(O)CS(=O)(=O)O` [Compound 5, 2-sulfoacetic acid] as the compound, how does the “PDH activity stimulation at 0.25 mM” value read?
**A.** none of these compounds stimulated PDH activity

**Q.** With `O=C(O)Cc1nnn[nH]1` [Compound 6, 2-(2H-tetrazol-5-yl)acetic acid] as the compound, how does the “PDH activity stimulation at 0.25 mM” value read?
**A.** none of these compounds stimulated PDH activity

**Q.** With `O=C(O)C(=O)C(=O)O` [Compound 7, 2-oxopropanedioic acid] as the compound, how does the “PDH activity stimulation at 0.25 mM” value read?
**A.** none of these compounds stimulated PDH activity

System: not listed separately
Experiment: Solubility in DMSO
Assay type: physicochemical
Details: not given

**Q.** Which “Solubility in DMSO” value does the source give for `O=C(O)CS(=O)(=O)O` [Compound 5, 2-sulfoacetic acid] here?
**A.** poorly soluble in DMSO

**Q.** For `O=C(O)Cc1nnn[nH]1` [Compound 6, 2-(2H-tetrazol-5-yl)acetic acid], which “Solubility in DMSO” value is on record?
**A.** poorly soluble in DMSO

**Q.** Which “Solubility in DMSO” value does the source give for `O=C(O)C(=O)C(=O)O` [Compound 7, 2-oxopropanedioic acid] here?
**A.** poorly soluble in DMSO
